Read-outs that look alike come from different tables or passages of the source.
How the values were obtained:
[1] = test system: Hedgehog pathway activation on 10T1/2/Smo#3 cells (C3H10T1/2 cells transfected with human Smoothened receptor); experiment: Hedgehog pathway activation on 10T1/2/Smo#3 cells measured by ALP activity; assay type: cell-based; conditions: Mus musculus, C3H 10T1/2, 10T1/2/Smo#3 cells
Procedure, shortened: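 Inhibition of alkaline phosphatase induction, read fluorometrically from 4-methylumbelliferyl phosphate conversion, gave IC50 values; CellTiter-Blue tracked viability in parallel. Cells were the human Smo-transfected 10T1/2/Smo#3 pool, stimulated by 10-20% hShh conditioned medium or the Smo agonist SAG (500 nM).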

[2] = test system: Hedgehog pathway activation (GLi-luciferase reporter) in Shh Light II reporter cells; experiment: Hedgehog pathway activation on Shh Light II reporter cells measured by luciferase activity; assay type: cell-based; conditions: Mus musculus, Shh Light II
Procedure, shortened: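 Shh Light II reporter cells carrying a hedgehog-responsive GLi-luciferase reporter were stimulated either with 500 nM SAG, a direct Smoothened agonist, or with conditioned media containing human Sonic Hedgehog (hShh). Test compounds were evaluated for blocking this pathway activation, quantified by luciferase activity. Cell viability was monitored in parallel with the Celltiter-Blue® assay.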

[3] = measured by ALP activity, read-out: ALP (IC50, inhibition of Hedgehog pathway activation)
[4] = hShh activation, read-out: Shh (IC50, inhibition of Hedgehog pathway activation)

| IC50 [1, 3] [nM] | IC50 [2, 4] [nM] | IC50 ([1]; hShh activation, ALP activity, read-out: 10T1/2/Smo#3 ALP activity (hShh Activation)) [nM] | IC50 ([2]; SAG activation (500 nM SAG), read-out: Shh Light II luciferase activity (SAG activation)) [nM] | IC50 ([2]; hShh activation, read-out: Shh Light II luciferase activity (hShh activation)) [nM] | Compound |
| --- | --- | --- | --- | --- | --- |
| 251 | 96 | – | – | – | CCOC(=O)Nc1cc(-c2cn3nc(-c4cccnc4C(F)(F)F)ccc3n2)c(F)cc1Cl [Example 657, ethyl 2-chloro-4-fluoro-5-(6-(2-(trifluoromethyl)pyridin-3-yl)imidazo[1,2-b]pyridazin-2-yl)phenylcarbamate] |
| 85 | 27 | – | – | – | CC(C)(C)C(=O)Nc1cc(-c2cn3nc(-c4cccnc4C(F)(F)F)ccc3n2)ccc1F [Example 658, N-(2-fluoro-5-(6-(2-(trifluoromethyl)pyridin-3-yl)imidazo[1,2-b]pyridazin-2-yl)phenyl)pivalamide] |
| 75 | 22 | – | – | – | CCC(C)(C)C(=O)Nc1cc(-c2cn3nc(-c4cccnc4C(F)(F)F)ccc3n2)c(F)cc1Cl [Example 659, N-(2-chloro-4-fluoro-5-(6-(2-(trifluoromethyl)pyridin-3-yl)imidazo[1,2-b]pyridazin-2-yl)phenyl)-2,2-dimethylbutanamide] |
| 17 | 32 | – | – | – | CC(C)(C(=O)Nc1cc(-c2cn3nc(-c4cccnc4C(F)(F)F)ccc3n2)c(F)cc1Cl)C(F)(F)F [Example 660, N-(2-chloro-4-fluoro-5-(6-(2-(trifluoromethyl)pyridin-3-yl)imidazo[1,2-b]pyridazin-2-yl)phenyl)-3,3,3-trifluoro-2,2-dimethylpropanamide] |
| 15 | 31 | – | – | – | CC(CC(=O)Nc1cc(-c2cn3nc(-c4cccnc4C(F)(F)F)ccc3n2)c(F)cc1Cl)C(F)(F)F (stereo not shown) [Example 661, N-(2-chloro-4-fluoro-5-(6-(2-(trifluoromethyl)pyridin-3-yl)imidazo[1,2-b]pyridazin-2-yl)phenyl)-4,4,4-trifluoro-3-methylbutanamide] |
| 161 | 39 | < 300 | < 300 | < 300 | CCCC(C)(C)C(=O)Nc1cc(-c2cn3nc(-c4cccnc4C(F)(F)F)ccc3n2)c(F)cc1Cl [Example 662, N-(2-chloro-4-fluoro-5-(6-(2-(trifluoromethyl)pyridin-3-yl)imidazo[1,2-b]pyridazin-2-yl)phenyl)-2,2-dimethylpentanamide] |
| 105 | 24 | – | – | – | CCC(C)(C)C(=O)Nc1cc(-c2cn3nc(-c4cccnc4C(F)(F)F)ccc3n2)ccc1Cl [Example 664, N-(2-chloro-5-(6-(2-(trifluoromethyl)pyridin-3-yl)imidazo[1,2-b]pyridazin-2-yl)phenyl)-2,2-dimethylbutanamide] |
| 120 | 19 | – | – | – | CC(C)(C(=O)Nc1cc(-c2cn3nc(-c4cccnc4C(F)(F)F)ccc3n2)ccc1Cl)C(F)(F)F [Example 665, N-(2-chloro-5-(6-(2-(trifluoromethyl)pyridin-3-yl)imidazo[1,2-b]pyridazin-2-yl)phenyl)-3,3,3-trifluoro-2,2-dimethylpropanamide] |
| 527 | 64 | – | – | – | CC(CC(=O)Nc1cc(-c2cn3nc(-c4cccnc4C(F)(F)F)ccc3n2)ccc1Cl)C(F)(F)F (stereo not shown) [Example 666, N-(2-chloro-5-(6-(2-(trifluoromethyl)pyridin-3-yl)imidazo[1,2-b]pyridazin-2-yl)phenyl)-4,4,4-trifluoro-3-methylbutanamide] |
| 203 | 64 | – | – | – | CCCC(C)(C)C(=O)Nc1cc(-c2cn3nc(-c4cccnc4C(F)(F)F)ccc3n2)ccc1Cl [Example 667, N-(2-chloro-5-(6-(2-(trifluoromethyl)pyridin-3-yl)imidazo[1,2-b]pyridazin-2-yl)phenyl)-2,2-dimethylpentanamide] |
| 631 | 283 | – | – | – | CC(C)OC(=O)Nc1cc(-c2cn3nc(-c4cccnc4C(F)(F)F)ccc3n2)ccc1Cl [Example 668, isopropyl 2-chloro-5-(6-(2-(trifluoromethyl)pyridin-3-yl)imidazo[1,2-b]pyridazin-2-yl)phenylcarbamate] |

Source: patent publication US8871767B2, “2-arylimidazo[1,2-B]pyridazine, 2-phenylimidazo[1,2-A]pyridine, and 2-phenylimidazo[1,2-A]pyrazine derivatives” (Hengrui (USA) Ltd., priority 2010, dated 2014)
